Data set [1] has as its system HBV. Briefly: HBV infection of primary human hepatocytes (literature). In kind it is cell-based, hepatitis B virus.
In data set [2] the target is T1, human NTCP (Homo sapiens, UniProt Q14973).
T1 sequence (Q14973 1-349): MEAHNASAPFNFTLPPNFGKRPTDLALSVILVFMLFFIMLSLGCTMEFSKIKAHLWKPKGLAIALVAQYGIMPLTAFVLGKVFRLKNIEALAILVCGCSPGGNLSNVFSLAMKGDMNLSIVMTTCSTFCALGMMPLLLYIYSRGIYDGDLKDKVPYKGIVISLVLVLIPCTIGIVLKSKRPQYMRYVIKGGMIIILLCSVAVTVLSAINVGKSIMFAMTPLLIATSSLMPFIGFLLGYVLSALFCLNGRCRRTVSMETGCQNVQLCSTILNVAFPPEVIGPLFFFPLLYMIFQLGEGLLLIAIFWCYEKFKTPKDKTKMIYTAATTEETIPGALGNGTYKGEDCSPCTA
Briefly: Sodium dependent tauro-ursodeoxycholic acid uptake into U2OS-HA-hNTCP cells. The data set is classed as cell-based. Details: HA; expressed in transfected cells. As to the method:
Figure 4 Myrcludex B inhibits uptake of tauro-ursodeoxycholic acid. Sodium dependent tauro-ursodeoxycholic acid uptake into U2OS-HA-hNTCP cells was reduced in the presence of Myrcludex B. N = 6 wells/condition, data are depicted as mean ± SD.
Buffers were set to pH 7.4, at room temperature. After washing, cells were pre-incubated for 10 minutes with drugs in 50 µL uptake buffer. […] After incubation, buffer was removed and cells were washed 2x with ice-cold PBS. Cells were lysed for a minimum of 30 minutes in 30 µL/well 0.05% SDS in water. When lysis was complete, 120 µL MicroScint™-20 (PerkinElmer) was added to the wells and radioactivity was measured by liquid scintillation counting.

Data set [3] concerns HBV. As to conditions: primary human hepatocytes, cited from earlier work.
Data set [4] has as its system HDV RNA and HBV DNA serum levels. As to conditions: chronic hepatitis delta patients, 24 weeks; cited from earlier work.
Data set [5] in a line: WST-1 cytotoxicity, wildtype U2OS cells. As to conditions: human. A general note: Formazan colour is commonly taken as a measure of viable cells.
For data set [6], the target named is T1, human NTCP. Kind of data set: Myrcludex B-FITC binding by confocal microscopy in U2OS-HA-hNTCP cells. Also noted: HA; expressed in transfected cells. As to conditions: for Myrcludex B-FITC fluorescence / binding to U2OS-HA-hNTCP cells (in words): co-administration with increasing amounts of drug; for ≥50% loss of Myrcludex B binding to hNTCP (concentration): confocal microscopy, 0.2 µM Myrcludex B-FITC, drug 1, 10, 100 µM, concentration at which binding inhibited minimally 50%. As to the method:
After 24 hours, medium was aspirated and cells were washed once with 300 µl Leibovitz’s L-15 Medium (Invitrogen). A 30 minute incubation period followed in which all cells were incubated with 0.2 µM Myrcludex B-FITC with or without drug (1, 10, 100 µM) and Hoechst (1/1000) in 300 µL Leibovitz’s L-15 Medium. Cells were washed twice with Leibovitz’s L-15 Medium and subsequently 400 µL Leibovitz’s L-15 Medium was added. Live cell fluorescent imaging was performed using a Leica SP8X-SMD confocal microscope with fully enclosed incubation at 37 °C. A 63x oil objective was used and images were captured while the cells were consecutively excited at 490 nm (FITC) 350 nm (Hoechst). ImageJ software (National Insititutes of Health, Bethesda, MD) was employed for data analysis.

A short description of data set [7]: in vitro. As to conditions: human, U2OS-HA-hNTCP cells.
Data set [8] has as its target T1, human NTCP. Briefly: Taurocholate uptake inhibition studies in U2OS-HA-hNTCP cells. The data set is classed as cell-based. Details: HA; expressed in transfected cells. As to conditions: for concentration at which NTCP was inhibited in repeated measurements of TC-uptake and Myrcludex B binding / IC50: U2OS-HA-hNTCP cells; for concentration at which NTCP was inhibited in repeated measurements of TC-uptake and Myrcludex B binding: both TC uptake and Myrcludex B binding; for IC50: concentrations 1 nM to 10 mM, read-out: IC50 for hNTCP-mediated TC uptake; for Taurocholate uptake into U2OS-HA-hNTCP cells (in words): increasing drug concentrations. As to the method:
(§1) For MDCK or MDCK-hASBT cells 70.000 cells/well were plated in 24-well plates, followed by 24 hours 10 mM sodium butyrate (Sigma-Aldrich) stimulation the next day. Cells were used in the inhibition studies 24 hours (U2OS cell lines) or 48 hours (MDCK cell lines) later. Inhibition studies with mNTCP transiently transfected cells were conducted 48–72 hours after transfection.
(§2) Medium was aspirated from the wells and cells were washed once with 250 µL uptake buffer. Subsequently, cells were pre-incubated with drug in 150 µL uptake buffer for 10 minutes at 37 °C. Taurocholate uptake was initiated by addition of 100 µL uptake buffer containing taurocholate (final concentration 10 µM TC spiked with tritium-labeled TC) and cells were incubated for 2 minutes at 37 °C. Subsequently, cells were washed 4 times with ice-cold PBS and lysed with 0.05% SDS in water. Radioactivity was measured by liquid scintillation counting.

In data set [9] the test system is HBV. As to conditions: for HBV infection in HepaRG cells (in words): HBeAg, HBsAg, HBcAg, concentration-dependent; for concentration effective in reducing HBeAg and HBsAg production: HepaRG cells infected with HBV, supernatant day 7 to 10; for number of HBcAg positive stained cells: HepaRG cells, day 10 post HBV infection, 50 µM.
The target of data set [10] is T2, mouse NTCP (Mus musculus, UniProt O08705).
T2 construct: expressed in transfected cells; host or cells: U2OS (transient transfection, PEI)
T2 sequence (O08705 1-362): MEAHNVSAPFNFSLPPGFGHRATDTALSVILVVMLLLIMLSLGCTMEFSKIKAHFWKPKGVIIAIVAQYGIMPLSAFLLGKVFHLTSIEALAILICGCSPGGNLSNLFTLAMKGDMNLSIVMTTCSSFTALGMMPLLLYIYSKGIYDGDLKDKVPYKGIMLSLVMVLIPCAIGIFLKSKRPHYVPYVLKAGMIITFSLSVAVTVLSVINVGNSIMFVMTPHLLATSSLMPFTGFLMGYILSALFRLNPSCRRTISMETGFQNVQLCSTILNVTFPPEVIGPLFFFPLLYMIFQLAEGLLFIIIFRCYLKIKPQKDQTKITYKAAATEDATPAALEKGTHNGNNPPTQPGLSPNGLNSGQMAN
Briefly: Taurocholate uptake in U2OS cells transiently transfected with mouse NTCP. As to conditions: at the calculated IC50 value for hNTCP. The data set is classed as cell-based. As to the method: (§3) U2OS and MDCK cells were grown in Dulbecco’s modified Eagle’s medium (DMEM, Sigma-Aldrich), supplemented with 10% FCS (Gibco), 1% L-glutamine (Lonza), and 1% penicillin/streptomycin (Lonza). […] Transient transfection of U2OS cells with mouse NTCP (mNTCP) was done with PEI reagent (Brunschwig, Basel, Switzerland). Shortly, U2OS cells were seeded one day prior to transfection in 24-well plates. On the day of transfection, 0.5 µg DNA was mixed with 100 µl unsupplemented DMEM and 3 µg/µl PEI. After 10–15 minute incubation at RT, 20 µl of the transfection mix was added to each 24-well. Transfected cells were used in further experiments 48–72 hours later. Cell lines were passaged twice a week at a confluence of 80%, and incubated in a humidified atmosphere of 37 °C + 5% CO2.
as §1, §2

Data set [11] deals with T1, human NTCP. Briefly: Screening taurocholate uptake assay (96-well, [14C]taurocholate, 10 µM drug). As to conditions: for Ranking score: ranking over the functional and the binding screening assay; for B-score functional assay: screening taurocholate uptake, 10 µM drug.
Data set [12] concerns HDV. Briefly: HDV infection of HepaRG cells (HDAg immunofluorescence). The data set is classed as cell-based, hepatitis delta virus. As to conditions: HDAg positive cells, day 5; concentration-dependent.
Data set [13] concerns the target T3, human ASBT (Homo sapiens, UniProt Q12908).
T3 construct: expressed in transfected cells; gift of Paul Dawson; induced with sodium butyrate
T3 sequence (Q12908 1-348): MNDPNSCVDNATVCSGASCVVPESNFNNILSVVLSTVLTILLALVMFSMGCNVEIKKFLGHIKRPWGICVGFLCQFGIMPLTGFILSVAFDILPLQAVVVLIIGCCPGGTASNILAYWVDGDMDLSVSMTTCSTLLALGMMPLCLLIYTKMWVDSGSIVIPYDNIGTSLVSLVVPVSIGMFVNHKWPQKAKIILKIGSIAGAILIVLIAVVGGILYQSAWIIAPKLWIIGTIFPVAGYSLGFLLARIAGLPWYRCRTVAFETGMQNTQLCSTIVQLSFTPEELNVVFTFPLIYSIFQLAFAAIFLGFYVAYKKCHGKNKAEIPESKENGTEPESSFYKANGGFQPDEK
Briefly: Taurocholate uptake in MDCK-hASBT cells. As to conditions: compared with NTCP. The data set is classed as cell-based. As to the method:
as §3, §1, §2

Data set [14] relates to U2OS cells. Kind of data set: WST-1 cytotoxicity, wildtype U2OS cells. As to conditions: U2OS cells, 2 hours.
The subject of data set [15] is U2OS-HA-hNTCP cells. As to conditions: 2 hours.

Usually viability stands for a read-out of living cells in per cent, often relative to untreated cells. A low value points to a greater loss of cells.

“Also recorded” adds a separate entry of the source. Read-outs that look alike come from different tables or passages of the source.

Consider Myrcludex B, for which the “fold lower concentration for blocking HBV infection than IC50 for bile acid transport” value in data set [1] is “at least 50 fold”. Also, the “sodium-dependent uptake of tauro-ursodeoxycholic acid” value in data set [2] is recorded as “largely inhibited; also recorded: reduced”. Besides, the IC50 in data set [3] (read-out: concentration inhibiting HBV infection, HBeAg) is 0.083 nM; in data set [3] (read-out: concentration inhibiting HBV infection, HBsAg), 0.669 nM. The “HDV RNA and HBV DNA serum levels” value in [4] is “Largely reduced”.
As to `COc1cc(C(=O)NS(=O)(=O)c2ccccc2C)ccc1Cc1cn(C)c2ccc(NC(=O)OC3CCCC3)cc12` [Zafirlukast], in [5], the viability at 1 µM stood at 87.7 ± 4.8%, the viability at 10 µM worked out at 94.1 ± 2.7% and the viability at 100 µM came to 73 ± 5.8%. Also, in data set [6] (at 10 µM), the “decreased Myrcludex B binding” value is recorded as “more than 50%”. Also, in [6], the “Myrcludex B-FITC fluorescence / binding to U2OS-HA-hNTCP cells (in words)” value is “reduced Myrcludex B-FITC fluorescence” and the “≥50% loss of Myrcludex B binding to hNTCP (concentration)” value is reported as at least 1 µM. Moreover, in [7], the viability at 2 h, 1 µM is 94.7 ± 12.7%; the viability at 2 h, 10 µM amounted to 87.1 ± 12.3%; the viability at 2 h, 100 µM was 77.7 ± 8%. In addition, in [8], the “concentration at which NTCP was inhibited in repeated measurements of TC-uptake and Myrcludex B binding” value was at most 10 µM; the IC50 came out at 6.5 µM; the “Taurocholate uptake into U2OS-HA-hNTCP cells (in words)” value was “reduced”. For the same molecule, in data set [9], the “HBV infection in HepaRG cells (in words)” value was “reduced HBV/HDV infection; also recorded: reduce”; the “concentration effective in reducing HBeAg and HBsAg production” value amounted to 17 µM; the “number of HBcAg positive stained cells” value was “severely reduced”. Further, the “inhibition of mouse Ntcp-mediated taurocholate uptake compared with human NTCP” value in data set [10] is recorded as “inhibited similarly as human NTCP”. In [11], this molecule displayed a Ranking score of 4.472 and a B-score functional assay of -7.741. In addition, the “HDV infection in HepaRG cells (in words)” value in [12] is “reduced HBV/HDV infection; also recorded: reduce”. For the same molecule, the “inhibition of ASBT-mediated taurocholate uptake” value in data set [13] was “inhibited ASBT less effectively and at higher concentrations than observed for NTCP; also recorded: inhibit ASBT in a concentration-dependent fashion”.
With `COc1cc(-c2ccc(N=Nc3ccc4c(S(=O)(=O)[O-])cc(S(=O)(=O)[O-])c(N)c4c3O)c(OC)c2)ccc1N=Nc1ccc2c(S(=O)(=O)[O-])cc(S(=O)(=O)[O-])c(N)c2c1O.[Na+].[Na+].[Na+].[Na+]` [Chicago Sky Blue 6B], in data set [14] (1 µM), the “cell viability by WST-1” value was 91.0 ± 9.3%. Besides, the “cell viability by WST-1” value in data set [14] (10 µM) worked out at 93.9 ± 5.4%. Further, the “cell viability by WST-1” value in data set [14] (100 µM) is 108.7 ± 5.6%. Besides, the “cell viability by WST-1” value in [15] (1 µM) was 87.8 ± 7.2%. The “cell viability by WST-1” value in data set [15] (10 µM) turned out to be 95.8 ± 5.9%. For the same molecule, the “cell viability by WST-1” value in [15] (100 µM) came out at 110.9 ± 9.4%. Moreover, in data set [6], the “Myrcludex B-FITC fluorescence / binding to U2OS-HA-hNTCP cells (in words)” value was “reduced” and the “≥50% loss of Myrcludex B binding to hNTCP (concentration)” value was at least 1 µM. In addition, in data set [8], the “concentration at which NTCP was inhibited in repeated measurements of TC-uptake and Myrcludex B binding” value was at most 10 µM; the IC50 was 7.1 µM; the “Taurocholate uptake into U2OS-HA-hNTCP cells (in words)” value is recorded as “reduced”. In addition, in [9], the “HBV infection in HepaRG cells (in words)” value is “reduced HBV/HDV infection”; the “concentration effective in reducing HBeAg and HBsAg production” value worked out at 17 µM; the “number of HBcAg positive stained cells” value is on record as “severely reduced”. Moreover, the “inhibition of mouse Ntcp-mediated taurocholate uptake compared with human NTCP” value in data set [10] was “more capable of inhibiting mouse Ntcp; also recorded: more potent in inhibiting mouse NTCP”. In data set [11], this molecule returned a Ranking score of 17.4642 and a B-score functional assay of -3.126. Also, in [12], the “HDV infection in HepaRG cells (in words)” value is recorded as “reduced HBV/HDV infection”. Moreover, the “inhibition of ASBT-mediated taurocholate uptake” value in data set [13] is given as “inhibited ASBT to a similar extent as NTCP; also recorded: inhibit ASBT in a concentration-dependent fashion”.

Source of the values: PMC5681660, “Reduced hepatitis B and D viral entry using clinically applied drugs as novel inhibitors of the bile acid transporter NTCP” (Scientific Reports, 2017).
